The subject of one data set is SARS-CoV-2 spike protein. Briefly: ELISA of serum SARS-CoV-2-specific IgG after vaccination with spike protein and adjuvant. Type of data set: in vivo, C57BL/6 mice. (ELISA stands for enzyme-linked immunosorbent assay.)
A further data set relates to PR8 virus. Briefly: Influenza challenge: NP peptide vaccine with compound 56, then live PR8 virus infection. In kind it is in vivo, C57BL/6 mice. As to conditions: NPI/II plus compound 56 (50 μg s.c. or 30 μg i.n.); two vaccinations; 110 PFU PR8. How it is done: Female C57BL/6 mice 6-8 weeks of age were immunized through either s.c. injection with 100p of vaccines or the intranasal route with 30 μl of vaccines. All vaccine liquids were freshly prepared and diluted with 0.5% Tween 20 PBS. Vaccines used for the subcutaneous injection contained immunogens NP366-374/NP311-325 peptides, alone or combined with compound 56 ([…]). Vaccines used for the i.n. route contained immunogens alone or with compound 56 (30 μg). After two times vaccination, mice were infected with 110 plaque-forming units (PFU) of live PR8 virus by intronasal.
A mouse-vaccination model was applied with an antigen […] to evaluate anti-influenza efficacy. Five mice per group were immunized two times with compound 56 and NPI/II. After two times vaccination, mice were infected with 110 plaque-forming units (PFU) of live PR8 virus by intronasal.

Data set [1] has as its system PEK antigen (PE-E7-K3)-specific cytokine-secreting splenocytes. Briefly: ELISpot of IFNγ and IL-2 production by splenocytes of mice vaccinated with PEK antigen plus saponin adjuvant. Type of data set: in vivo, C57BL/6 mice. As to conditions: 50 μg saponin + PEK 100 μg, s.c.; splenocytes one week after third dose.
The next data set deals with Female BALB/c mice. In words: Acute toxicity with increased dose of saponin (survival, weight change, spleen and hepato somatic index). In kind it is in vivo. An excerpt: FIG. 8 (A) The percentage of median weight change of mice in 5 days. The values are presented as means±S.E.M. (n=5). (B) Hepato somatic index and (C) Spleen somatic index. The values are presented as means±S.E.M. (n=5). The percentage of median weight change of mice which was received increased dose of saponin adjuvant 56 was all less than 5%. The spleen somatic index and hepato somatic index in all experimental group were no change with compare to control group.
Acute toxicity was examined with increased dose of saponin 56 form 100 μg to 1000 μg. The result was presented as the number of surviving animal per group of 5 mice (Female BALB/c mice, 9 weeks) in 7 days. […] (FIG. 8)
The results represent in FIG. 8. […] The spleen somatic index and hepato somatic index in all experimental group were no change with compare to control group.

Data set [2] relates to E.G7-OVA (OVA-expressing EL4 lymphoma) tumors. In words: Tumor challenge: OVA vaccine with adjuvant in E.G7-OVA tumor bearing mice. In kind it is in vivo, C57BL/6 mice. As to conditions: Days 7, 14; for tumor growth suppression compared with the control group (PBS): 100 μg OVA with or without 50 μg adjuvant. The protocol: Female C57BL/6 mice 6-8 weeks of age obtained from NLAC Taiwan. Mice were injected s.c. with 200 μL of 1.5*10^6 E. G7-OVA (OVA-expressing EL4 lymphoma) cells in PBS. Tumor volumes were measured at regular intervals using a caliper and calculated by the following formula: tumor volume (mm^3)=(long diameter)*(short diameter)^2*0.52. When the average tumor volume reached […] (day 7), 100 μL of 100 μg OVA in PBS with or without 50 μg compound 56, alum, Qs-21 and GPI0100 was injected s.c. around the tumor. PBS (200 μL) was used as a control.
A mouse-vaccination model was applied with an antigen OVA to evaluate anti-tumor efficacy. […] The evaluation of compound 56, and positive control groups (alum, Qs-21 and GPI-0100) anti-tumor efficacy were analyzed by caliper.

In data set [3] the test system is memory T cells (low CD62L, high CD44). Briefly: Flow cytometric analysis of memory T cells (CD62L low, CD44 high) in splenocytes of vaccinated mice. Type of data set: in vivo, C57BL/6 mice. Particulars: one week post-third dose. How it is done: C57BL/6 mice were obtained from NLAC Taiwan. Mice between 4 and 8 weeks of age were vaccinated with 100 μL via the subcutaneous (SC) route and one dose per week for three weeks. Mice was sacrificed one week after the third vaccination, serum and splenocytes were harvested.
Spleen tissue was isolated from mice and processed into single cell suspensions using PP micro centrifuge sample pestle. Splenocytes were seeding on 6 well plate at 2×10^7/2 mL, cultivation for 2 h in a CO2 incubator. After 2 h, stimulate with or without E7-peptide for 2 hours at 37° C., then treat cell with protein transport inhibitor Monensin (Invitrogen, Cat. no. 00-4505-51) and Brefeldin (Invitrogen, Cat. no. 00-4506-51) for 4 hours at 37° C. Afterward, cells were harvest then washed twice with PBS and then stained for surface CD3 (BioLegend, Cat. no. 100222), CD4 (BioLegend, Cat. no. 100540), CD8 (Invitrogen, Cat. no. 11-0081-86), CD44 (BioLegend, Cat. no. 103008), CD62L (BioLegend, Cat. no. 104412) for 30 minutes at 4° C. After washing, cells were fixed for 30 minutes at room temperature using IC fixation buffer (Invitrogen, Cat. no. 00-8222-49), then cells were washed in permeabilization buffer (Invitrogen, Cat. no. 00-8333-56) and stained with IFNγ antibody (Invitrogen, Cat. no. 48-7311-82), IL-2 antibody (Invitrogen, Cat. no. 25-7021-82) and TNFα antibody (Invitrogen, Cat. no. 48-7321-82). One point five million cells events were acquired on the Backman Coulter Gallions. Flow data were analyzed using Kaluza software (ver. 1.2). Populations were first gated on viable mononuclear cell using forward and side scatter, then gated on CD3^+/CD4^+ or CD3^+/CD8^+ T cells. Next, sub-gated CD62L^−/CD44^+ memory T cells. Subsequently, sub-gated on either CD4^+/IFNγ, CD8^+/IFNγ^+, CD4^+/IL-2^+, CD8^+/IL-2^+, CD4/TNFα^+ and CD8^+/TNFα^+ double-positive cells.
Two adhesion molecules associated with differentiating naive and activated/memory T cells are CD62L (L-selectin) and CD44 (H-CAM). […] Flow-cytometric analysis (individual mice) of T-cells as frequency of viable CD8^+ or CD4^+ splenocytes expressing IFN-γ, TNF-α, or IL-2. Cytokine positivity was determined.

Take `CC1O[C@@H](OC(=O)[C@]23CCC(C)(C)CC2C2=CCC4C5(C)CC[C@H](O[C@@H]6OC(C(=O)NCCCCCCCCc7ccc(Oc8ccccc8)cc7)[C@@H](O)C(O)C6O)C(C)(C=O)C5CCC4(C)C2(C)CC3O)C(O[C@@H]2OC(C)[C@H](O[C@@H]3OC[C@@H](O)C(O)C3O)C(O)C2O)C(O)[C@H]1O` (stereo partly drawn) [Compound 56, 3-O—(N-(8-(4-Phenoxyhenyl)octyl)-β-D-glucopyranosyluronamide)-28-O-(β-D-xylopyranosyl-(1→4)-α-L-rhamnopyranosyl-(1→2)-β-D-fucopyranosyl) quillaic ester]: the “increase of antibody titer” value with SARS-CoV-2 spike protein (SARS-CoV-2 (2 μg) + Compound 56 (50 μg) vs SARS-CoV-2 (10 μg) + Alum (10 μg), only 20% of antigen) was determined as 1000 fold. Further, the “level of SARS-CoV-2-specific IgG antibody production” value in the data set with SARS-CoV-2 spike protein (SARS-CoV-2 (2 μg) + Compound 56 (50 μg), s.c.) is reported as “highest level of antibody production”. Moreover, the “survival rate following PR8 infection compared to NP I/II peptides alone” value in the data set on PR8 virus was “higher survival rate”. In data set [1], the “inducing IL-2 (ELISpot)” value was “moderate” and the “secretion of cytokines IFNγ (ELISpot) compared with GPI0100” value is “three to four times more”. Moreover, in the data set with Female BALB/c mice (100 μg to 1000 μg, 7 days), the “abnormality on activity and diet behavior” value was “no obvious abnormality”; the “survival in acute toxicity test” value was “all of the mice were survive”. Further, in the data set on Female BALB/c mice (Dose 100 μg, 7 days), the “number of surviving animal per group of 5 mice” value (“number … per group of 5 mice” below) is recorded as 5/5. Moreover, the “number … per group of 5 mice” value with Female BALB/c mice (Dose 200 μg, 7 days) is 5/5. In addition, the “number … per group of 5 mice” value with Female BALB/c mice (Dose 500 μg, 7 days) is 5/5. In addition, the “number … per group of 5 mice” value in the data set with Female BALB/c mice (Dose 1000 μg, 7 days) is 5/5. In the data set on Female BALB/c mice (all experimental groups, n=5), the “hepato somatic index compared to control group” value is reported as “no change” and the “spleen somatic index compared to control group” value is reported as “no change”. Besides, the “percentage of median weight change of mice” value in the data set with Female BALB/c mice (increased dose of saponin adjuvant, 5 days, n=5) is “less than 5%”. In data set [2] (100 μg OVA + 50 μg adjuvant), the “survival rate of tumor bearing mice” value was “highest survival rate”. Moreover, the “tumor growth suppression compared with the control group (PBS)” value in data set [2] is given as “significant tumor growth suppression effect”. In data set [3], the “cytokine positive CD4+ T-cells” value is “no cytokine positive CD4^+ T-cells were detected” and the “frequency of CD8+ T-cells positive for IFN-γ or TNF-α as compared to mice vaccinated with GPI-0100” value is recorded as “higher frequency”.
In the case of `CC1O[C@@H](OC(=O)[C@]23CCC(C)(C)CC2C2=CCC4C5(C)CC[C@H](O[C@@H]6OC(C(=O)NCCCCCCCCc7ccc(N8CCOCC8)cc7)[C@@H](O)C(O)C6O)C(C)(C=O)C5CCC4(C)[C@]2(C)CC3O)C(O[C@@H]2OC(C)[C@H](O[C@@H]3OC[C@@H](O)C(O)C3O)C(O)C2O)C(O)[C@H]1O` (stereo partly drawn) [Compound 62, 3-O—(N-(8-(4-morpholinophen-1-yl)octyl)-β-D-glucopyranosyluronamide)-28-O-(β-D-xylopyranosyl-(1→4)-α-L-rhamnopyranosyl-(1-2)-β-D-fucopyranosyl) quillaic ester], in data set [3], the “cytokine positive CD4+ T-cells” value is “no cytokine positive CD4^+ T-cells were detected” and the “frequency of CD8+ T-cells positive for IFN-γ or TNF-α as compared to mice vaccinated with GPI-0100” value is “higher frequency”.
On to `CC1O[C@@H](OC(=O)[C@]23CCC(C)(C)CC2C2=CCC4C5(C)CC[C@H](O[C@@H]6OC(C(=O)NCCCCCCCCc7ccc(Oc8ccccc8)cc7)[C@@H](O)C(O)C6O)C(C)(C=O)C5CCC4(C)[C@]2(C)CC3O)C(O[C@@H]2OC(C)[C@H](O[C@@H]3OC[C@@H](O)C(O)C3O)C(O[C@@H]3OC(CO)[C@@H](O)C(O)C3O)C2O)C(O)[C@H]1O` (stereo partly drawn) [Compound 79, 3-O—(N-(8-(4-Phenoxyhenyl)octyl)-β-D-glucopyranosyluronamide)-28-O-(β-D-glucopyranosyl-(1→3)-(β-D-xylopyranosyl-(1-4))-α-L-rhamnopyranosyl-(1→2)-β-D-fucopyranosyl) quillaic ester], for which, in data set [1], the “inducing IL-2 (ELISpot)” value is recorded as “moderate” and the “secretion of cytokines IFNγ (ELISpot) compared with GPI0100” value is “three to four times more”. Further, in data set [3], the “cytokine positive CD4+ T-cells” value was “no cytokine positive CD4^+ T-cells were detected” and the “frequency of CD8+ T-cells positive for IFN-γ or TNF-α as compared to mice vaccinated with GPI-0100” value is on record as “higher frequency”.
As for Alum [reference compound], in data set [2], the “tumor growth suppression compared with the control group (PBS)” value is on record as “slight tumor growth suppression at first”.
With “OVA: antigen OVA used in the tumor vaccination model”, the “tumor growth suppression compared with the control group (PBS)” value in data set [2] is “slight tumor growth suppression at first”.
Same read-out and setting: to Qs-21 [reference compound] belongs “significant tumor growth suppression effect”.

The values are drawn from patent US12419952B2, “Saponin conjugate and vaccine or pharmaceutical composition comprising the same” (priority 2019, dated 2025).
